Results as given in patent publication US4537777A, “A52688 Antibiotics and process for their production” (priority 1983, dated 1985).
Where two headings read alike, the source gives them in different places.

Key:
Micrococcus luteus = experiment: standard disc-plate assay; format: cell-based; conditions: read-out: Zone Diameters
[1] = test system: Trichophyton mentagroprophytes; experiment: standard disc-plate assay; format: cell-based; conditions: read-out: Zone Diameters
[2] = test system: Bacillus stereothermophilus; experiment: standard disc-plate assay; format: cell-based; conditions: read-out: Zone Diameters
Proteus vulgaris = experiment: standard disc-plate assay; format: cell-based; conditions: read-out: Zone Diameters
Serratia marcescens = experiment: standard disc-plate assay; format: cell-based; conditions: read-out: Zone Diameters
Bacillus subtilis = experiment: standard disc-plate assay; format: cell-based; conditions: read-out: Zone Diameters
Neurospora crassa = experiment: standard disc-plate assay; format: cell-based; conditions: read-out: Zone Diameters
Staphylococcus aureus = experiment: standard disc-plate assay; format: cell-based; conditions: read-out: Zone Diameters
moisture absorption = format: physicochemical
Escherichia coli = experiment: standard disc-plate assay; format: cell-based
Procedure: In Table IX the standard discplate-assay activity of the A52688 factors is summarized. Activity is measured as the diameter (in mm) of the observed zone of inhibition; the diameter of the disc used in each case was 6.35 mm.

Pseudomonas solanacearum = experiment: microbe, parasite or virus in culture; format: cell-based; conditions: Ralstonia solanacearum; conc 0.1 mg/ml; read-out: Zone Diameters
Pseudomonas aeruginosa = experiment: standard disc-plate assay; format: cell-based; conditions: read-out: Zone Diameters
Candida albicans = experiment: standard disc-plate assay; format: cell-based; conditions: read-out: Zone Diameters
[3] = test system: Saccharomyces pastorianus; experiment: standard disc-plate assay; format: cell-based; conditions: read-out: Zone Diameters
Salmonella gallinarium = experiment: standard disc-plate assay; format: cell-based; conditions: read-out: Zone Diameters
Mycobacterium avium = experiment: standard disc-plate assay; format: cell-based; conditions: read-out: Zone Diameters
Adenocarcinoma 755 = experiment: murine-transplanted tumor adenocarcinoma 755 in mice; format: in vivo; conditions: for Percent Tumor Inhibition / Toxic Deaths: daily for 10 days
Procedure: (§1) A52688 factors A, C, D, E, F, G, H, J and K and the specified acyl esters of factors A, C, D, E, G, H, J and K are especially useful as oncolytic agents.
Table X summarizes the results of experiments in which mice bearing the murine-transplanted tumor adenocarcinoma 755 were treated with compounds of this invention. In each test the compound was administered by the intraperitoneal route at specified dose levels. The compound was administered over a ten-day period, either on a daily basis or on days one, five and nine, as indicated.

lymphosarcoma 6L3 HED = experiment: tumor growth test in mice; format: in vivo; conditions: tests in mice
Text: as §1

solid leukemia P1534J = experiment: tumor growth test in mice; format: in vivo; conditions: tests in mice
Text: as §1

[4] = test system: plasma cell myeloma X-5563; experiment: tumor growth test in mice; format: in vivo; conditions: tests in mice
Text: as §1

Lewis lung tumor = experiment: tumor growth test in mice; format: in vivo; conditions: tests in mice
Text: as §1

ovarian M-5 tumor = experiment: tumor growth test in mice; format: in vivo; conditions: tests in mice
Text: as §1

acute toxicity in mice = conditions: mouse, in vivo, formulated in aqueous PVP
Text: ^a Compounds formulated in aqueous PVP
^b Route test compound administered

[5] = read-out: Zone Diameters, in minimal medium, conc 0.1 mg/ml, disc 6.35 mm

| SMILES | zone of inhibition at 100 µg/mL (Micrococcus luteus) [mm] | zone of inhibition at 100 µg/mL [1] [mm] | zone of inhibition at 100 µg/mL [2] [mm] | zone of inhibition at 100 µg/mL (Proteus vulgaris) [mm] | zone of inhibition at 100 µg/mL (Serratia marcescens) [mm] | zone of inhibition at 100 µg/mL (Bacillus subtilis) [mm] | zone of inhibition at 100 µg/mL (Neurospora crassa) [mm] | zone of inhibition at 100 µg/mL (Staphylococcus aureus) [mm] | zone of inhibition at 100 µg/mL (Escherichia coli; [5]) [mm] | zone of inhibition at 100 µg/mL (Pseudomonas solanacearum) [mm] | zone of inhibition at 100 µg/mL (Pseudomonas aeruginosa) [mm] | zone of inhibition at 100 µg/mL (Candida albicans) [mm] | zone of inhibition at 100 µg/mL [3] [mm] | zone of inhibition at 100 µg/mL (Salmonella gallinarium) [mm] | zone of inhibition at 100 µg/mL (Mycobacterium avium) [mm] | other results |
| --- | --- | --- | --- | --- | --- | --- | --- | --- | --- | --- | --- | --- | --- | --- | --- | --- |
| [C-]#[N+]C(=CC1CCC(OC(=O)CC(C)C)CC1)C(=CC1(OC(C)=O)C=CC(O)CC1)[N+]#[C-] (stereo not drawn) [Factor K] | 29 | 32 | 25 | 19 | 11 | 18 | 37 | 25 | 11 | 19 | 11 | 20 | 20 | 17 | 11 | moisture absorption (moisture absorption): absorbs moisture readily |
| [C-]#[N+]C(=CC1=C[C@@H](O)[C@H](O)CC1)C(=CC1CCC(OC(=O)C=C(C)C)CC1)[N+]#[C-] (relative stereo) [Factor A] | 36 | 45 | 35 | 24 | 20 | 30 | 39 | 26 | 20 | 26 | 23 | 33 | 20 | 21 | 14 | Percent Tumor Inhibition (Adenocarcinoma 755; 0.25 mg/kg i.p.): 3%; Toxic Deaths (Adenocarcinoma 755; 0.25 mg/kg i.p., of 10 mice tested (9 for factor E)): 0; Percent Tumor Inhibition (Adenocarcinoma 755; 0.30 mg/kg i.p.): 55%; Toxic Deaths (Adenocarcinoma 755; 0.30 mg/kg i.p., of 10 mice tested): 1; Percent Tumor Inhibition (Adenocarcinoma 755; 0.35 mg/kg i.p.): 69%; Toxic Deaths (Adenocarcinoma 755; 0.35 mg/kg i.p., of 10 mice tested): 1; Percent Tumor Inhibition (Adenocarcinoma 755; 0.40 mg/kg i.p.): 91%; Toxic Deaths (Adenocarcinoma 755; 0.40 mg/kg i.p., of 9 mice tested): 6; growth of tumor (Adenocarcinoma 755; tests in mice): inhibited the growth; growth of tumor (lymphosarcoma 6L3 HED): inhibited the growth; growth of tumor (solid leukemia P1534J): inhibited the growth; growth of tumor [4]: inhibited the growth; growth of tumor (Lewis lung tumor): inhibited the growth; growth of tumor (ovarian M-5 tumor): inhibited the growth; zone of inhibition at 100 µg/mL (Escherichia coli; read-out: Zone Diameters, conc 0.1 mg/ml, disc 6.35 mm): 24 mm; LD50 (acute toxicity in mice; ip, intraperitoneal, read-out: Intraperitoneal LD50): 3.12 mg/kg; LD50 (acute toxicity in mice; oral, read-out: Oral LD50): 8.84 mg/kg |
